According to PubChem BioAssay AID1963849 (Molecular Pharmacology Branch, DTP, NCI, 2024):

Tested on: 299254-011-R-J1-PDC complex spheroid viability
Experiment: Anticancer human tumor 299254-011-R-J1-PDC patient-derived melanoma cell line growth inhibition [POLQ]
Details: for IC50: curve of first compound; for viability, T/C: stronger effect = lower value
Procedure: Multicellular complex tumor spheroid response to Polymerase (POL) inhibitors (novobiocin, ART-558, RP6685) in combination with a variety of drugs and investigational agents in selected tumor cell lines
The POL inhibitors (novobiocin, ART-558, and RP6685) were evaluated both individually and in combination with standard of care and investigational anticancer small molecules within a complex spheroid model of solid tumors. . Complex spheroids include a stromal component modeled by human endothelial cells (HUVEC) and fibroblasts modeled by human mesenchymal stem cells (MSCs). The concentration ranges selected for each drug and investigational agent were based upon clinically achievable concentrations if the clinical Cmax of the agent was known.
Compounds. The drugs and investigational agents: novobiocin (NSC847541), ART-558 (NSC835418), RP-6685 (NSC848927), peposertib (NSC802822), ceralasertib (NSC780249), elimusertib (NSC800525), camonsertib (NSC841442), AZD-1390 (NSC803789), olaparib (NSC753686), talazoparib (NSC767125), rucaparib (NSC756644), sotorasib (NSC818433), MRTX-1133 (NSC836407), SN-38 (NSC673596), topotecan (NSC609699), epotoside (NSC141540), doxorubicin (NSC123127), gemcitabine (NSC613327), 5-fluorouracil (NSC19893), paclitaxel (NSC125973), vemurafenib (NSC761431), MSA-2 (NSC828583), SN-011 (NSC837082), adavosertib (NSC754352), prexasertib (NSC758257), carboplatin (NSC241240) and oxaliplatin (NSC266046), were obtained from the National Cancer Institute (NCI) Developmental Therapeutics Program Chemical Repository (21). The FDA-approved anticancer drug set is available from the Developmental Therapeutics Program at https://dtp.cancer.gov/organization/dscb/obtaining/. […] The stock solutions were prepared in dimethyl sulfoxide (DMSO, Sigma-Aldrich, St. Louis, MO, cat. D2650), except for the platinum compounds which were prepared in saline (Quality Biological, Gaithersburg, MD, cat. 114-055-101), at 800-fold the tested concentration and stored at -70 degrees C prior to their use. All drugs and investigational agents were tested over a range starting from a high concentration at or near the clinical Cmax and decreasing in half-log increments. If the clinical Cmax for an agent had not been determined, the highest concentration tested was 10 microM, except for SN-38, which was tested at a high concentration of 1 microM.
Cell Culture. All cells were maintained in an incubator at 37 degrees C and 5% CO2 with 95% humidity. The PDC lines were cultured according to standard operating procedures established by the NCI PDMR (https://pdmr.cancer.gov). Table 3 of the manuscript, lists the cell lines along with the number of the three cell types plated to form the mct-spheroids and media for tumor cell growth. After thawing, all PDC lines, except 997537-175-T-J1-PDC and 415267-285-R-J2-PDC, were cultured in Matrigel-coated flasks prepared with a working solution of 1X Ham's F-12 nutrient mix, without supplementation (Thermo Fisher Scientific, cat. 11765054), 100 U/mL penicillin-streptomycin (Thermo Fisher Scientific, cat. 15140122), and 2.5% Matrigel (Corning Inc., Corning, NY, cat. 354248) for the first three passages. The two PDC lines 997537-175-T-J1-PDC and 415267-285-R-J2-PDC were cultured on uncoated flasks. The 857933-349-R-J2-PDC line was cultured in 6C/Colon 1B media containing advanced DMEM/F-12 (Thermo Fisher Scientific, cat. 12634028), 10 mM HEPES (Thermo Fisher Scientific, cat. 15630080), 1X GlutaMAX supplement (Thermo Fisher Scientific, cat. 35050061), 0.1 mg/mL primocin (InvivoGen, San Diego, CA, cat. ant-pm-2), 10% defined fetal bovine serum, heat inactivated (HyClone Laboratories Inc., Logan, UT, cat. SH30070.03HI), 50% L-WRN conditioned media (ATCC, cat. CRL-3276), 1.25 mM N-Acetyl-L-cysteine (Sigma-Aldrich, cat. A9165), 10 mM nicotinamide (Sigma-Aldrich, cat. N0636), 1X B-27 supplement (Thermo Fisher Scientific, cat. 17504044), 1X N-2 supplement (Thermo Fisher Scientific, cat. […]

[1] = second compound 0.0316 µM, first compound 0.0316 µM
[2] = second compound 0.0316 µM, first compound 0.1 µM
[3] = second compound 0.0316 µM, first compound 0.316 µM
[4] = second compound 0.0316 µM, first compound 1 µM
[5] = second compound 0.0316 µM, first compound 3.16 µM
[6] = second compound 0.0316 µM, first compound 10 µM
[7] = second compound 0.1 µM, first compound 0.0316 µM
[8] = second compound 0.1 µM, first compound 0.1 µM
[9] = second compound 0.1 µM, first compound 0.316 µM
[10] = second compound 0.1 µM, first compound 1 µM
[11] = second compound 0.1 µM, first compound 3.16 µM
[12] = second compound 0.1 µM, first compound 10 µM
[13] = second compound 0.316 µM, first compound 0.0316 µM
[14] = second compound 0.316 µM, first compound 0.1 µM
[15] = second compound 0.316 µM, first compound 0.316 µM
[16] = second compound 0.316 µM, first compound 1 µM
[17] = second compound 0.316 µM, first compound 3.16 µM
[18] = second compound 0.316 µM, first compound 10 µM
[19] = second compound 1 µM, first compound 0.0316 µM
[20] = second compound 1 µM, first compound 0.1 µM
[21] = second compound 1 µM, first compound 0.316 µM
[22] = second compound 1 µM, first compound 1 µM
[23] = second compound 1 µM, first compound 3.16 µM
[24] = second compound 1 µM, first compound 10 µM
[25] = second compound 3.16 µM, first compound 0.0316 µM
[26] = second compound 3.16 µM, first compound 0.1 µM
[27] = second compound 3.16 µM, first compound 0.316 µM
[28] = second compound 3.16 µM, first compound 1 µM
[29] = second compound 3.16 µM, first compound 3.16 µM
[30] = second compound 3.16 µM, first compound 10 µM
[31] = second compound 10 µM, first compound 0.0316 µM
[32] = second compound 10 µM, first compound 0.1 µM
[33] = second compound 10 µM, first compound 0.316 µM
[34] = second compound 10 µM, first compound 1 µM
[35] = second compound 10 µM, first compound 3.16 µM
[36] = second compound 10 µM, first compound 10 µM
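Also: spheroids exposed to drugs for one week before measurement.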
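For viability, T/C in this document: percent viability relative to DMSO vehicle control taken as 100%.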

With C#Cc1c(F)ccc2cc(O)cc(-c3ncc4c(N5CC6CCC(C5)N6)nc(OCC56CCCN5CC(F)C6)nc4c3F)c12 (centres undefined) + Nc1ccc(C#CCN(C(=O)Cc2ncc(C(F)(F)F)cc2C(F)(F)F)c2ccc(F)cc2)nn1 the IC50 (second compound 0.0316 µM) was greater than 10 µM, the IC50 (second compound 0.1 µM) was greater than 10 µM and the IC50 (second compound 0.316 µM) was greater than 10 µM. It also gave an IC50 (second compound 1 µM) greater than 10 µM, an IC50 (second compound 3.16 µM) greater than 10 µM and an IC50 (second compound 10 µM) greater than 10 µM. It also gave a viability, T/C [1] of 106%, a viability, T/C [2] of 108% and a viability, T/C [3] of 106%. It also gave a viability, T/C [4] of 112%, a viability, T/C [5] of 116% and a viability, T/C [6] of 82.1%. For the same molecule, the viability, T/C [7] was 92.3%, the viability, T/C [8] was 109% and the viability, T/C [9] was 110%. It also gave a viability, T/C [10] of 104%, a viability, T/C [11] of 103% and a viability, T/C [12] of 90.2%. It also gave a viability, T/C [13] of 107%, a viability, T/C [14] of 103% and a viability, T/C [15] of 133%. It also gave a viability, T/C [16] of 104%, a viability, T/C [17] of 98% and a viability, T/C [18] of 92.4%. For the same molecule, the viability, T/C [19] was 114%, the viability, T/C [20] was 102% and the viability, T/C [21] was 104%. It also gave a viability, T/C [22] of 136%, a viability, T/C [23] of 103% and a viability, T/C [24] of 103%. The viability, T/C [25] was 117%, the viability, T/C [26] was 118% and the viability, T/C [27] was 106%. The viability, T/C [28] was 128%, the viability, T/C [29] was 99.1% and the viability, T/C [30] was 86.6%. For the same molecule, the viability, T/C [31] was 103%, the viability, T/C [32] was 89.5% and the viability, T/C [33] was 92.6%. The viability, T/C [34] was 128%, the viability, T/C [35] was 96.9% and the viability, T/C [36] was 68.6%.

CC(C)n1c(=O)n(C)c2cnc3cc(F)c(-c4ccc(OCCCN5CCCCC5)nc4)cc3c21 + Nc1ccc(C#CCN(C(=O)Cc2ncc(C(F)(F)F)cc2C(F)(F)F)c2ccc(F)cc2)nn1 was tested, and the IC50 (second compound 0.0316 µM) was greater than 10 µM, the IC50 (second compound 0.1 µM) was greater than 10 µM and the IC50 (second compound 0.316 µM) was greater than 10 µM. It also gave an IC50 (second compound 1 µM) greater than 10 µM, an IC50 (second compound 3.16 µM) greater than 10 µM and an IC50 (second compound 10 µM) greater than 10 µM. It also gave a viability, T/C [1] of 112%, a viability, T/C [2] of 105% and a viability, T/C [3] of 105%. The viability, T/C [4] was 111%, the viability, T/C [5] was 109% and the viability, T/C [6] was 72.9%. It also gave a viability, T/C [7] of 105%, a viability, T/C [8] of 102% and a viability, T/C [9] of 121%. It also gave a viability, T/C [10] of 105%, a viability, T/C [11] of 102% and a viability, T/C [12] of 78.7%. The viability, T/C [13] was 126%, the viability, T/C [14] was 123% and the viability, T/C [15] was 89.7%. For the same molecule, the viability, T/C [16] was 108%, the viability, T/C [17] was 97.3% and the viability, T/C [18] was 84.5%. The viability, T/C [19] was 105%, the viability, T/C [20] was 102% and the viability, T/C [21] was 91.8%. It also gave a viability, T/C [22] of 105%, a viability, T/C [23] of 93.1% and a viability, T/C [24] of 79.7%. It also gave a viability, T/C [25] of 115%, a viability, T/C [26] of 109% and a viability, T/C [27] of 113%. The viability, T/C [28] was 116%, the viability, T/C [29] was 96.7% and the viability, T/C [30] was 78.3%. The viability, T/C [31] was 93.5%, the viability, T/C [32] was 81.5% and the viability, T/C [33] was 98.1%. It also gave a viability, T/C [34] of 86.6%, a viability, T/C [35] of 79.5% and a viability, T/C [36] of 71.5%.
